According to US10588972B2, “Phthalocyanine probes and uses thereof” (LI-COR, INC., priority 2014, dated 2020):
Values joined by “and” are separate entries in the source; they are usually repeats but may differ in a detail not shown here. Equal values may be shown once. Read-outs that look alike come from different tables or passages of the source. Values belong to the compound of their own block, whether it stands above or below them.

Experiments:
[1] = Production of singlet oxygen, Singlet Oxygen Green Sensor, steady state fluorometer; details: for singlet oxygen sensor fluorescence with scavenger sodium azide added: 32 J/cm^2
Experimental: Dyes and conjugated probes (IRDye 700DX carboxylate (700DX), EGF, RGD, and IgG conjugates) were evaluated for production of singlet oxygen using Singlet Oxygen Green Sensor (Life Technologies) and measured by a steady state fluorometer (ex 504 nm/em 525 nm). Controls (water or DMEM medium) and a positive control of methylene blue (MB) were included.
Measurements were made every second for 30 sec and averaged. Solution makeup: SOGS (1 μM), dye or probe addition (10 μM), Tris pH 7.5 ([…]) and deuterium oxide (50%). Light exposure=32 J/cm^2.

[2] = test system: serum proteins including albumin (human serum albumin, bovine serum albumin, 5% FBS); experiment: Binding of dye to serum proteins, incubation in 1×PBS and 4-12% Bis-Tris gel
Experimental: In SDS-PAGE and under non-reducing conditions, ovalbumin has a molecular weight of about 40 kDa, 45 kDa, 63 kDa and 72 kDa. Human serum albumin (HSA) has a molecular with ranging from about 66.6 kDa to about 66.4 kDa or lower under non-reducing conditions. HSA can migrate as an approximately 58-67 kDa band in SDS-PAGE under reducing conditions.
Human serum albumin, bovine serum albumin, 5% FBS and IRDye® 700DX carboxylate were incubated in 1×PBS for 2.5 h at room temperature. Methylene blue was also used as a dye known to bind to albumin and the other serum proteins. The samples were run on a 4-12% Bis-Tris gel. Ovalbumin served as the negative control. The proteins incubated with IRDye® 700DX carboxylate are on the left of the gel and methylene blue samples are on the right (FIG. 4A-B).

[3] = Clearance and biodistribution of IRDye 700DX carboxylate by fluorescence imaging; type: in vivo, nude mice
Experimental: Experiments were performed to evaluate the clearance of IRDye® 700DX carboxylate in nude mice receiving 2 or 4 nmoles of the compound. This is the non-reactive form of the dye and the in vivo elimination kinetics can be used to determine the biodistribution of the dye and a subsequent dye-labeled conjugate. The results for both doses were very similar (only 4 nmole animal images are presented). Clearance appeared to be renal as noted in the dorsal (FIG. 8A) and ventral whole body views (FIG. 9A). The kidneys are visible throughout the dorsal series (FIG. 8A) and liver negligible in ventral series (FIG. 9A). […] A closer examination of the organs after excision is illustrated in FIG. 10B (2 nmole dose). […] All organs imaged (muscle, heart, lungs, liver, brain, spleen, intestine, and kidneys) were analyzed for signal corrected for area.

[4] = Stability of IRDye 700DX carboxylate (signal intensity) in PBS and in buffers of pH 2.1-8.2; type: physicochemical; details: 37° C.
Experimental: Evaluation of the effect of pH on the stability of the carboxylate form of the dye was performed at room temperature and at 37° C. For comparison purposes a test of the stability at 37° C. while dissolved in 1×PBS was included. Mcllaine's buffer solution with constant ionic strength was used. […] When the dye was dissolved in various buffers with increasing pH (2.1-8.2) a loss in signal intensity initially occurred between pH 4 and 5 with losses progressively increasing down to pH 2.1 at room temperature (FIG. 3A). At 37° C. this loss initially occurred at a slightly higher pH between pH 5-6 with a progression similar to the tests done at room temperature (FIG. 3B).

A431 cells [5] = experiment: Unlabeled versus IRDye 700DX-labeled panitumumab with and without irradiation (Example 5); type: cell-based; details: 10 minutes incubation
Experimental: Although the assumption is that the doses used in the assay described herein are too low to be a contributing factor in the cell death seen with IRDye® 700DX-labeled panitumumab, a small study was conducted to confirm that no therapeutic effect is due to the assay system. The test included the following four treatments: treatment 1 of unlabeled panitumumab and no irradiation (FIG. 11A), treatment 2 of IRDye® 700DX-labeled panitumumab and no irradiation (FIG. 11B), treatment 3 of unlabeled panitumumab and irradiation (FIG. 11C), and treatment 4 of IRDye® 700DX-labeled panitumumab and irradiation (FIG. 11D). The irradiation dose was 24 J/cm^2 with the probe incubation of 10 minutes and a concentration of 0.1 μM.

A431 cells [6] = experiment: VB-48 assay: vitality, viability and necrosis of treatments 1-10 (Table 3); type: cell-based
Experimental: Briefly, A431 cells were labeled with respective probes for specific treatments (listed below); cells were rinsed and evaluated for labeling. The test include the following treatments: […], treatments 3-4 of EGF-IRDye® 700DX at 0.5 μM and radiation, treatments 5-6 of IRDye® 700DX NHSe at 5 μM and radiation, treatments 7-8 of panitumumab-IRDye® 700DX at about 0.1 μM and radiation, treatment 9 of a negative control with no probe and no irradiation, and treatment 10 of RGD-IRDye® 700DX and no irradiation. The probes were incubated for about 10 minutes and with a longer period of about 20 minutes for the RGD probe. The cells were monitored with microscopy and morphology was examination 24 hours post treatment.
Low binding was expected for the RGD probe due to the low level of integrin receptors on A431 cells. […] By 3 hours post-irradiation all treatments except RGD (Treatment 1) show significant cytotoxicity. Vitality, viability and necrosis assays such as a VB-48 assay and JC-1 assay were performed.

A431 cells [7] = type: cell-based; details: 32 J/cm^2
Experimental: A different LED source was tested and evaluated to determine if a second source of LED would yield a similar effect as the standard LED used. A straight forward evaluation was set up with four treatments (treatments A-D). The tests were performed in triplicate in order to examine reproducibility. The test included the following four treatments: treatment A of no probe and irradiation, treatment B of IRdye® 700DX-labeled EGF and no irradiation, treatment C of IRDye® 700DX-labeled EGF and irradiation, and treatment D of IRDye® 700DX-labeled panitumumab and irradiation. The probe dose was about 0.1 μM labeled panitumumab and 0.5 μM 700DX-labeled EGF. Irradiation was for 10 minutes at an irradiation dose of 32 J/cm^2.
Significant and similar effects for both probes together and in triplicate thus providing clear evidence that IRDye® 700DX-labeled small protein can kill cells similarly to an IRDye 700DX-labeled antibody. Conditions for use of either probe may be unique to the individual probe. […] The fluorescent scale of the 700 nm images was the same for both treated sets of cells (FIGS. 12C-12D). Although the exact concentration of the antibody probe is not known, the signals from the different probes appear similar in level and intensity.

A431 cells [8] = experiment: Cytotoxicity and localization of antibody probe versus small protein ligand probe after irradiation (Example 4); type: cell-based
Experimental: Both probes can bind EGFR and had approximately 2 dye molecule per conjugate molecule. It was assumed that the affinity for the receptor will be different for the antibody (generally pM), compared to the small protein (nM). Although the probe doses were different, the incubation times were the same at only 10 min. After incubation, the probes were rinsed from the cells. FIGS. 7A and 7B illustrates A431 cells that were incubated with IRDye 700DX-panitumumab or IRDye 700DX-EGF, respectively and thereafter irradiated.
Thus, upon irradiation, the production of singlet oxygen occurred at the cell surface. Typically, the EGF ligand is internalized after binding the EGF receptor.

[9] = 2.5 h incubation, room temperature
[10] = irradiation 24 J/cm^2, 0.1 μM, 24 hours post-treatment
[11] = no irradiation, 0.1 μM, 24 hours
[12] = irradiated (I) 32 J/cm^2, RGD 0.5 μM, EGF 0.5 μM, NHSe 5 μM, Pan ~0.1 μM
[13] = irradiated (I) 10 minutes, 700DX-EGF 0.5 μM, 700DX-Pan about 0.1 μM

Compound: silicate(5-), bis[N— [3-[(hydroxy-.kappa.O)dimethylsilyl]propyl]-3-sulfo-N,N-bis(3-sulfopropyl)-1-propanaminiumato(4-)][6-[[[3-[(29H,31H-phthalocyanin-yl-.kappa.N29, .kappa.N30, .kappa.N31, .kappa.N32)oxy]propoxy]carbonyl]amino]hexanoato(3-)]-, sodium (1:5) [IRDye® 700DX carboxylate]
singlet oxygen sensor fluorescence with scavenger sodium azide added [1]: reduction in fluorescence
binding to the serum proteins including albumin ([2]; 1 h post-incubation): not detected
binding to the serum proteins including albumin [2, 9]: evident
primary location of the dye in the kidney (longitudinal slice) ([3]; 4 nmole dose): proximal tubules of the renal cortex
signal in organs other than the liver and kidney ([3]; 24 hours after injection): little to no signal
retention in the liver ([3]; nude mice, 2 or 4 nmoles): no significant retention in the liver
route of clearance ([3]; nude mice, 2 or 4 nmoles, 5 minutes to 24 hours): renal
loss of signal intensity (stability) ([4]; 1×PBS, 1 μM): very little loss of signal intensity
pH at which a loss in signal intensity initially occurred ([4]; buffers of increasing pH): 5-6 pH

binding to the serum proteins including albumin [2, 9]: Signal is present
Compound: CN(C)c1ccc2nc3ccc(=[N+](C)C)cc-3sc2c1 [methylene blue]
increase of singlet oxygen sensor fluorescence ([1]; dye or probe 10 μM, SOGS 1 μM, light exposure 32 J/cm^2 (690 nm)): Three- to four-fold
singlet oxygen sensor fluorescence with scavenger sodium azide added [1]: reduction in fluorescence

Compound: unlabeled panitumumab: unlabeled antibody that binds EGFR
induction of cell death (morphology) (A431 cells [5]; [10]): No measurable effect
induction of cell death (morphology) (A431 cells [5]; [11]): No measurable effect

Compound: 700DX-Pan [reference compound]
induction of cell death (morphology) (A431 cells [5]; [10]): effectively induced cell death
induction of cell death (morphology) (A431 cells [5]; [11]): No measurable effect
% Healthy (A431 cells [6]; [12]): 15.0%
% Necrotic (A431 cells [6]; [12]): 70%
Cells/mL (A431 cells [6]; [12]): 1.2 × 10^5 Cells/mL
Est % Viability (A431 cells [6]; [12]): 30-40%
Low % Vitality (A431 cells [6]; [12]): 15%
cytotoxicity by microscopy (A431 cells [6]; irradiated, up to 3 hours post-irradiation): most effective
effect on cells (morphology) (A431 cells [7]; irradiated 10 minutes): severely affected by the irradiating energy and were dying
Cells/mL (A431 cells [7]; [13]): 2.8 × 10^5 Cells/mL and 4.2 × 10^5 Cells/mL and 2.3 × 10^5 Cells/mL
VB-48 % necrotic (A431 cells [7]; [13]): 67% and 87%
dead irradiated cells (A431 cells [8]; 10 min incubation, panitumumab probe about 0.1 μM, EGF probe 0.5 μM, 24 hours post irradiation): 62%
necrotic cells after irradiation (A431 cells [8]; irradiation 24 J/cm^2 (figure legend)): 62%
